# Results published in patent publication US20230167121A1, “SUBSTITUTED {1,2,4,} TRIAZOLO{1,5-A} PYRIMIDINE COMPOUNDS AND USE IN STABILIZING MICROTUBULES” (THE TRUSTEES OF THE UNIVERSITY OF PENNSYLVANIA, priority 2020, published 2023).
# Values joined by “and” are separate entries in the source; they are usually repeats but may differ in a detail not shown here. Equal values may be shown once. Where a name gives a salt, the structure may show the parent alone. Read-outs that look alike come from different tables or passages of the source.
# Assays:
# [1] = tested on: total α-tubulin; experiment: cell-based assay of MT-stabilization: total α-tubulin in QBI293 cell lysates by ELISA; conditions: QB1293 cells; for fold induction at 1 µM / fold induction at 10 µM: QBI293, 4 h
# Experimental: (§1) All test compounds were evaluated in a previously described cell-based assay of MT-stabilization (see Kovalevich, J., et al. (2016) Characterization of Brain-Penetrant Pyrimidine-Containing Molecules with Differential Microtubule-Stabilizing Activities Developed as Potential Therapeutic Agents for Alzheimer's Disease and Related Tauopathies. J Pharmacol Exp Ther 357, 432-450, incorporated herein by reference), in which compound-dependent changes in tubulin polymerization and total tubulin levels were determined after 4 h of incubation of QBI293 cells with 1 and 10 μM compound via quantification of acetylated α-tubulin and total tubulin in cell lysates by ELISA.
# (§2) Novel C6 nitrile- and alkyne-substituted triazolopyrimidine examples that have improved in vitro activity relative to previously described examples, with the general structure depicted in Formula I. The activity of the novel C6-nitrile substituted compounds were tested in a previously described cellular assay of MT-stabilization (Kovalevich, J., et al. (2016)). As summarized in Table 2. below, eighteen examples were synthesized and tested. In all cases, these compounds were confirmed to be active Class I triazolopyrimidines. […] Table 2 provides fold-changes in acetylated α-tubulin and total α-tubulin levels in QB1293 cells after 4 h incubation with test compounds at either 1 or 10 μM. Data are expressed as the fold-change relative to vehicle-treated cells. *p<0.05 and **p<0.01 by one-way ANOVA.
# (§3) Compounds produced according to the preceding synthetic schemes were for microtubule stabilization. Fold-changes in acetylated α-tubulin (AcTub) and α-tubulin (α-Tub) levels in QB1293 cells after 4 h incubation with test compounds at either 1 or 10 μM. Reported values for AcTub and α-Tub represent the fold-change over control (DMSO)-treated cells (*p<0.05 and **p<0.01 by one-way ANOVA); numbers in parentheses represent the fold-change of AcTub over positive control-treated cells (i.e., 100 nM of cevipabulin). Changes of +/−15% of control are deemed to be within the day-to-day assay variability and non-significant.
# [2] = tested on: acetylated α-tubulin; experiment: cell-based assay of MT-stabilization: acetylated α-tubulin in QBI293 cell lysates by ELISA
# Experimental: as §1, §2, §3
# [3] = Plasma and brain compound determinations (LC-MS/MS); type: in vivo; conditions: CD1 mice, 2.5 mg/kg each, one hour after dosing; for concentration at 1 h / Kp at 1 h: CD1, mouse, 2.5 mg/kg
# Experimental: CD1 mice (n=3) were dosed concurrently with CNDR-51990 and CNDR-51993 (representing a 1:1 mixture of two diastereoisomers, 52017 (67) and 52016 (68)) at 2.5 mg/kg each). One hour after dosing, mice were euthanized and blood collected, followed by perfusion with saline. Mouse brains were homogenized in 10 mM ammonium acetate, pH 5.7 (1:2; w/v) using a handheld sonic homogenizer. Mouse plasma was obtained from blood that was collected into a 1.5 ml tube containing 0.5M EDTA solution and which was centrifuged for 10 minutes at 4500 g at 4° C. Aliquots (50 μl) of brain homogenates or plasma were mixed with 0.2 ml of acetonitrile, centrifuged at 15,000×g, and the resulting supernatant was used for subsequent LC-MS/MS analysis. The LC-MS/MS analysis was conducted by Inotiv, Inc., utilizing methods essentially as previously described (Lou et al., J. Med. Chem. 57:6116-27, 2014).
# [4] = 4 h incubation, 1 μM compound, relative to vehicle-treated cells, read-out: α-Tub 1 μM (fold-change in total α-tubulin)
# [5] = 4 h incubation, 10 μM compound, relative to vehicle-treated cells, read-out: α-Tub 10 μM (fold-change in total α-tubulin)
# [6] = 4 h incubation, 1 μM compound, relative to vehicle-treated cells
# [7] = Table 4, 4 h, 1 μM, read-out: α-Tub l μM (fold-change over control (DMSO)-treated cells)
# [8] = Table 4, 4 h, 10 μM, read-out: α-Tub 10 μM (fold-change over control (DMSO)-treated cells)
# [9] = dosed concurrently, individual animals 1-3
compound,measurement,setting,value
"C[C@H](Nc1c(-c2ccc(C#N)cc2F)c(Cl)nc2ncnn12)C(F)(F)F [Compound 61, (S)-4-(5-Chloro-7-((1,1,1-trifluoropropan-2-yl)amino)-[1,2,4]triazolo[1,5-a]pyrimidin-6-yl)-3-fluorobenzonitrile]",fold induction at 1 µM,[1]; [4],1
same,fold induction at 10 µM,[1]; [5],1
"4-(5-chloro-7-(piperidin-1-yl)-[1,2,4]triazolo[1,5-a]pyrimidin-6-yl)-3,5-difluorobenzonitrile [Compound 74]",α-Tub 1 μM (fold-change in total α-tubulin),[1]; [6],0.98 +/− 0.02 fold-change
same,α-Tub 10 μM (fold-change in total α-tubulin),"[1]; 4 h incubation, 10 μM compound, relative to vehicle-treated cells",0.95 +/− 0.03 fold-change
same,Class,"[2]; Table 2, triazolopyrimidine MT-activity class",1
C[C@H](Nc1c(-c2c(F)cc(I)cc2F)c(Cl)nc2ncnn12)C(F)(F)F [TAL-640],fold induction at 1 µM,[1]; [7],1.01
same,fold induction at 10 µM,[1]; [8],0.93
same,fold induction at 1 µM,"[2]; QBI293, Table 4, QB1293 cells, 4 h, 1 μM, *p<0.05, **p<0.01, read-out: AcTub 1 μM (fold-change over control (DMSO)-treated cells)",1.9
"C[C@H](Nc1c(-c2c(F)cc(C#N)cc2F)c(Cl)nc2ncnn12)C(F)(F)F [Compound 19, (S)-4-(5-Chloro-7-((1,1,1-trifluoropropan-2-yl)amino)-[1,2,4]triazolo[1,5-a]pyrimidin-6-yl)-3,5-difluorobenzonitrile]",fold induction at 1 µM,[1]; [4],0.94 ± 0.02
same,fold induction at 10 µM,[1]; [5],0.95 ± 0.05
"C#Cc1cc(F)c(-c2c(Cl)nc3ncnn3c2N[C@H](C)C(C)C)c(F)c1 [TAL-487, (R)-5-chloro-6-(4-ethynyl-2,6-difluorophenyl)-N-(3-methylbutan-2-yl)-[1,2,4]triazolo[1,5-a]pyrimidin-7-amine]",fold induction at 1 µM,[1]; [7],0.98
"CC(C)[C@@H](C)Nc1c(-c2c(F)cc(C#N)cc2F)c(Cl)nc2ncnn12 [Compound 66, (R)-4-(5-chloro-7-((3-methylbutan-2-yl)amino)-[1,2,4]triazolo[1,5-a]pyrimidin-6-yl)-3,5-difluorobenzonitrile]",fold induction at 1 µM,[1]; [4],0.93
same,fold induction at 10 µM,[1]; [5],0.94
"N#Cc1cc(F)c(-c2c(Cl)nc3ncnn3c2N2CCCCCCC2)c(F)c1 [Compound 77, 4-(7-(azocan-1-yl)-5-chloro-[1,2,4]triazolo[1,5-a]pyrimidin-6-yl)-3,5-difluorobenzonitrile]",α-Tub 1 μM (fold-change in total α-tubulin),[1]; [6],1.01 +/− 0.02 fold-change
same,fold induction at 10 µM,[1]; [5],0.99
"C[C@@H](Nc1c(-c2c(F)cc(C#CCCN(C)C)cc2F)c(Cl)nc2ncnn12)C(C)(C)C [TAL-664, (R)-5-chloro-6-(4-(4-(dimethylamino)but-1-yn-1-yl)-2,6-difluorophenyl)-N-(3,3-dimethylbutan-2-yl)-[1,2,4]triazolo[1,5-a]pyrimidin-7-amine]",fold induction at 1 µM,[1]; [7],0.88
same,fold induction at 10 µM,[1]; [8],0.96
"C[C@H](Nc1c(-c2c(F)cc(C#CCCCO)cc2F)c(Cl)nc2ncnn12)C(F)(F)F [TAL-642, (S)-5-(4-(5-chloro-7-((1,1,1-trifluoropropan-2-yl)amino)-[1,2,4]triazolo[1,5-a]pyrimidin-6-yl)-3,5-difluorophenyl)pent-4-yn-1-ol]",fold induction at 1 µM,[1]; [7],0.93
same,fold induction at 10 µM,[1]; [8],0.87
"C[C@H](Nc1c(-c2c(F)cc(C#CCCO)cc2F)c(Cl)nc2ncnn12)C(F)(F)F [TAL-641, (S)-4-(4-(5-chloro-7-((1,1,1-trifluoropropan-2-yl)amino)-[1,2,4]triazolo[1,5-a]pyrimidin-6-yl)-3,5-difluorophenyl)but-3-yn-1-ol]",fold induction at 1 µM,[1]; [7],0.98
"CNCC#Cc1cc(F)c(-c2c(Cl)nc3ncnn3c2N[C@H](C)C(C)(C)C)c(F)c1 [TAL-638, (R)-5-chloro-6-(2,6-difluoro-4-(3-(methylamino)prop-1-yn-1-yl)phenyl)-N-(3,3-dimethylbutan-2-yl)-[1,2,4]triazolo[1,5-a]pyrimidin-7-amine hydrochloride]",fold induction at 1 µM,[1]; [7],0.93
same,fold induction at 10 µM,[1]; [8],1
"CC(C)[C@@H](Nc1c(-c2ccc(C#N)cc2F)c(Cl)nc2ncnn12)C(F)(F)F [Compound 63, (R)-4-(5-chloro-7-((1,1,1-trifluoro-3-methylbutan-2-yl)amino)-[1,2,4]triazolo[1,5-a]pyrimidin-6-yl)-3-fluorobenzonitrile]",fold induction at 1 µM,[1]; [4],0.99
same,fold induction at 10 µM,[1]; [5],0.98
"N#Cc1cc(F)c(-c2c(Cl)nc3ncnn3c2N2CCCCCC2)c(F)c1 [Compound 75, 4-(7-(Azepan-1-yl)-5-chloro-[1,2,4]triazolo[1,5-a]pyrimidin-6-yl)-3,5-difluorobenzonitrile]",fold induction at 1 µM,[1]; [4],0.98 ± 0.03
same,fold induction at 10 µM,[1]; [5],0.99
"CC(C)[C@@H](C)Nc1c(-c2c(F)cc(C#CCN(C)C)cc2F)c(Cl)nc2ncnn12 [TAL-546, (R)-5-chloro-6-(4-(3-(dimethylamino)prop-1-yn-1-yl)-2,6-difluorophenyl)-N-(3-methylbutan-2-yl)-[1,2,4]triazolo[1,5-a]pyrimidin-7-amine]",fold induction at 1 µM,[1]; [7],0.98
"CNCC#Cc1cc(F)c(-c2c(Cl)nc3ncnn3c2N[C@H](C)C(C)C)c(F)c1 [TAL-637, (R)-5-chloro-6-(2,6-difluoro-4-(3-(methylamino)prop-1-yn-1-yl)phenyl)-N-(3-methylbutan-2-yl)-[1,2,4]triazolo[1,5-a]pyrimidin-7-amine hydrochloride]",fold induction at 1 µM,[1]; [7],0.96
same,fold induction at 10 µM,[1]; [8],0.96
"CC(C)[C@@H](C)Nc1c(-c2ccc(C#N)cc2F)c(Cl)nc2ncnn12 [Compound 68, (R)-4-(5-chloro-7-((3-methylbutan-2-yl)amino)-[1,2,4]triazolo[1,5-a]pyrimidin-6-yl)-3-fluorobenzonitrile]",α-Tub 1 μM (fold-change in total α-tubulin),"[1]; 4 h incubation, 1 μM compound, relative to vehicle-treated cells, listed as 52016 (68)",0.95 +/− 0.02 fold-change
same,α-Tub 10 μM (fold-change in total α-tubulin),"[1]; 4 h incubation, 10 μM compound, relative to vehicle-treated cells, listed as 52016 (68)",0.92 +/− 0.01 fold-change
"C[C@@H](Nc1c(-c2c(F)cc(C#CCCCO)cc2F)c(Cl)nc2ncnn12)C(C)(C)C [TAL-601, (R)-5-(4-(5-chloro-7-((3,3-dimethylbutan-2-yl)amino)-[1,2,4]triazolo[1,5-a]pyrimidin-6-yl)-3,5-difluorophenyl)pent-4-yn-1-ol]",fold induction at 1 µM,[1]; [7],1.18
"CC(C)[C@@H](C)Nc1c(-c2ccc(C#N)cc2F)c(Cl)nc2ncnn12 [CNDR-51993, (R)-4-(5-chloro-7-((3-methylbutan-2-yl)amino)-[1,2,4]triazolo[1,5-a]pyrimidin-6-yl)-3-fluorobenzonitrile]",concentration at 1 h,"[3]; brain, dosed concurrently, individual animals 1-3, read-out: Brain Concentration",209 ng/g
same,concentration at 1 h,"[3]; brain, dosed concurrently, mean, n=3, read-out: Brain Concentration, Mean",225 ng/g
same,Kp at 1 h,"[3]; brain, individual animals 1-3, read-out: Brain/Plasma",0.86
same,Kp at 1 h,"[3]; brain, mean, n=3, read-out: Brain/Plasma, Mean",1.09
same,concentration at 1 h,"[3]; plasma, dosed concurrently, individual animals 1-3, read-out: Plasma Concentration",242 ng/mL
same,concentration at 1 h,"[3]; plasma, dosed concurrently, mean, n=3, read-out: Plasma Concentration, Mean",206 ng/mL
same,Brain Concentration,[3]; [9],211 ng/g and 254 ng/g
same,Plasma Concentration,[3]; [9],186 ng/mL and 190 ng/mL
same,Brain/Plasma,[3]; individual animals 1-3,1.13 and 1.34
"N#Cc1ccc(-c2c(Cl)nc3ncnn3c2N2CCCCCC2)c(F)c1 [Compound 76, 4-(7-(Azepan-1-yl)-5-chloro-[1,2,4]triazolo[1,5-a]pyrimidin-6-yl)-3-fluorobenzonitrile]",α-Tub 1 μM (fold-change in total α-tubulin),[1]; [6],1.04 +/− 0.05 fold-change
same,fold induction at 10 µM,[1]; [5],0.99
